From patent publication US7291611B2, “Benzimidazolidinone derivatives as muscarinic agents” (ACADIA Pharmaceuticals Inc., priority 2001, dated 2007)

Assays:
[1] = human, in vivo; cited from earlier work
mice [2] = assay: Catalepsy (rod test) in mice; format: in vivo; settings: mice (FIG. 5)
Procedure: (§1) Male Non-Swiss Albino mice (Harlan Sprague-Dawley) were housed (4 mice/cage) in rooms with temperature and humidity controlled and water and food (Harlan Teklad) freely available. Mice were kept on a 12-hr light:dark cycle.
A custom-built 8-mm rod that is raised 3.5 cm from the lab benchtop was used. 61KS19 (10 mg/kg) or haloperidol (1 mg/kg) were administered i.p. 60 min before the start of the session. The forepaws of each animal is placed on the rod and the time to step down is measured. If the animal steps off immediately, another attempt is made until the animal stays on for more than 10 sec or 10 attempts have been made. A maximum of 2 min is allowed at which time the animal is taken away from the rod and returned to the homecage. Each dose or dose combination was tested in a separate group of animals (n=6). Averages and standard errors were calculated and compared using an ANOVA and post-hoc Dunnett's t-tests.

M1 muscarinic receptor = target: T1, M1 muscarinic receptor (Homo sapiens, UniProt P11229); assay: R-SAT functional assay, muscarinic M1 receptor; format: cell-based
T1 construct: expressed in transfected cells; host or cells: NIH-3T3 cells (ATCC CRL 1658)
T1 sequence (P11229 1-460): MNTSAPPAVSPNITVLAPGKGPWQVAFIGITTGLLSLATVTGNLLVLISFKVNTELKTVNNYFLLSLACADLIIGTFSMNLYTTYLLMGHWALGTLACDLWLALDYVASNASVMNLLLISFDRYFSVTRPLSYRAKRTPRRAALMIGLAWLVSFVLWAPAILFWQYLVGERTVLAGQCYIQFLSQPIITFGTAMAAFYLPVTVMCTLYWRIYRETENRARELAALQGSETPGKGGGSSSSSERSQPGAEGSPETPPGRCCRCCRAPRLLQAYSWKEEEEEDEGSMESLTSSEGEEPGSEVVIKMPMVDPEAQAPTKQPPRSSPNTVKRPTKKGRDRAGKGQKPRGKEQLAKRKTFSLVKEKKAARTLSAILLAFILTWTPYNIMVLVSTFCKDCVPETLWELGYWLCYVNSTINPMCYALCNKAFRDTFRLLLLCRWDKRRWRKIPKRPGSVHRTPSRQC
Procedure: (§2) The M1 and M4 muscarinic receptor subtypes were cloned substantially as described by Bonner et al., (1987) Science […] p. 527 and Bonner et al, (1988) Neuron 1, p. 403. R-SAT assays were carried out substantially as described in U.S. Pat. No. 5,707,798 and by Braüner-Osbome, H. B. and Brann, M. R. (1995), Eur. J. Pharmacol. 295:93-102. NIH-3T3 cells (available from the American Type Culture Collection as ATCC CRL 1658) were transfected with plasmid DNA encoding the m1 and m4 receptors and plasmid DNA encoding β-galactosidase. Transfected cells were grown in the presence of between 1 nM and 40 μM of the test compound for 5 days. On day 5, the cells were lysed using 0.5% nonidet-P and β-galactosidase expression was quantified using the chromogenic substrate o-nitrophenyl-p-D-galactoside (ONGP).
(§3) Data were normalized relative to the maximum response of the cells to the muscarinic agonist carbachol, and the following equation was fitted to the data: response=minimum+(maximum−minimum)/(1+([ligand]/EC50)) % Efficacy was defined as (maximum−minimum)/(maximum response of cells to carbachol). pEC50=−log (EC50). Where data gave a bell-shaped curve, “maximum” was defined as the highest observed response.

mice [3] = assay: Spontaneous locomotor activity in mice; format: in vivo; settings: 10 mg/kg i.p., mice (FIG. 1)
Procedure: as §1
(§4) Plastic 20×20×30 cm activity cages were equipped with photocell beams (AccuScan Instruments). For spontaneous activity, 61KS19 (1, 3 and 10 mg/kg) was administered alone i.p. 30 min before the session. For hyperactivity experiments, mice were treated with 0.3 mg/kg dizocilpine, 3.0 mg/kg d-amphetamine or 3.0 mg/kg scopolamine i.p. 15 min before the session (15 min after 61KS19). Locomotor data were collected during a 15 min session without habituation in a lit room. Each dose combination was tested in a separate group of animals (n=8). Distance traveled (cm) was calculated and averaged followed by ANOVA and post-hoc Dunnett's t-test comparisons.

M4 muscarinic receptor = target: T2, M4 muscarinic receptor (Homo sapiens, UniProt P08173); assay: R-SAT functional assay, muscarinic M4 receptor; format: cell-based
T2 construct: expressed in transfected cells; host or cells: NIH-3T3 cells (ATCC CRL 1658)
T2 sequence (P08173 1-479): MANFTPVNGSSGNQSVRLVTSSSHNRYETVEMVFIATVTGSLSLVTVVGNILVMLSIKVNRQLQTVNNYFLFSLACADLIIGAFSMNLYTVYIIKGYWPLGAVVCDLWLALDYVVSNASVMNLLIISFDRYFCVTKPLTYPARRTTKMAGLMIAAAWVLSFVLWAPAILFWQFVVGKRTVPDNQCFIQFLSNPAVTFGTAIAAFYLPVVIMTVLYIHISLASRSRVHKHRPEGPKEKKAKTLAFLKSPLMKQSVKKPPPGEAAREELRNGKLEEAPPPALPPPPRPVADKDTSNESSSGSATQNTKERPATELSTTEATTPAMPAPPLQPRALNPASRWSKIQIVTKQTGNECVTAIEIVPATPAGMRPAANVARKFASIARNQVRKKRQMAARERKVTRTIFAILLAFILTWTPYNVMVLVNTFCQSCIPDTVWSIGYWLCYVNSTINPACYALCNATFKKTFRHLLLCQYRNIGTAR
Procedure: as §2, §3

mice [4] = assay: MK-801 (dizocilpine)-induced hyperactivity in mice; format: in vivo; settings: 10 mg/kg i.p., mice (FIG. 4)
Procedure: as §1, §4

mice [5] = assay: Amphetamine-induced hyperactivity in mice; format: in vivo; settings: 3 and 10 mg/kg i.p., mice (FIG. 2)
Procedure: as §1, §4

[6] = target: T3, human dopamine D2 receptor (Homo sapiens, UniProt P14416); assay: [3H]-Spiperone radioligand binding to D2 receptor membranes; settings: tSA cell membranes, 150 pM [3H]-Spiperone; read-out: D2 [3H]Spiperone pIC50 (converted)
T3 construct: expressed in transfected cells; host or cells: tSA cells
Procedure: The D2 dopamine receptor subtype was cloned substantially as described by Stormann, Gdula, Weiner and Brann, 1990 [Mol Pharmacol 37, 1-6]. Cell membranes expressing the D2 receptor were prepared by transfecting tSA cells (Chahine, M., Bennet, P. B., George, A. L., Horn, R. (1994) Pfluegers Arch. 427, 136-142) with 10 μg plasmid DNA encoding the human dopamine D2 receptor and 40 μl Superfect (Qiagen). The cells were harvested 48 hours and transfection and membranes were prepared by homogenizing the cells using a Polytron harvester in 20 mM Hepes, 10 mM EDTA, pH 7.4. The homogenate was centrifuged for 30 minutes at 37,000 g. The pellet was homogenized again in 60 ml 20 mM Hepes, 5 mM EDTA. The homogenate was centrifuged for 30 minutes at 37,000 g. The supernatant was discarded. The pellet was homogenized again in 10 ml 20 mM Hepes, 1 mM EDTA. The resultant membranes were frozen at −80° C.
The membranes were combined with 150 pM [^3H]-Spiperone (Amersham-Pharmacia, 107 Ci/mmol) and ligand concentrations between 1 nM and 10 μM, or haloperidol concentrations between 0.1 nM and 1 μM in 460 μl 20 mM Hepes, 1 mM EDTA, 0.1% (w/v) bovine serum albumin. Nonspecific binding was defined as binding in the presence of 1 μM haloperidol. The membranes were incubated for 4 hours at 37° C., and then filtered onto Packard GFB Filterplates using a Packard harvester. The membranes were dried and 50 μl Microscint (Packard) was added to each well. The amount of bound radioligand was quantified using a Packard Topcount scintillation counter.
Data were normalized relative to the maximum inhibition of [^3H]-Spiperone binding by 1 μM haloperidol, and the following equation was fitted to the data: % inhibition=minimum+(maximum−minimum)/(1+([ligand]/[IC50])) % inhibition was defined as (maximum−minimum)/(maximum response of cells to haloperidol). pIC50=−log (IC50). NT=not tested. Results

mice [7] = assay: Scopolamine-induced hyperactivity in mice; format: in vivo; settings: 1, 3 and 10 mg/kg i.p., mice (FIG. 3)
Procedure: as §1, §4

dopamine receptors = settings: Shannon et al.; cited from earlier work

T3 sequence (P14416 1-414 isoform P14416-2): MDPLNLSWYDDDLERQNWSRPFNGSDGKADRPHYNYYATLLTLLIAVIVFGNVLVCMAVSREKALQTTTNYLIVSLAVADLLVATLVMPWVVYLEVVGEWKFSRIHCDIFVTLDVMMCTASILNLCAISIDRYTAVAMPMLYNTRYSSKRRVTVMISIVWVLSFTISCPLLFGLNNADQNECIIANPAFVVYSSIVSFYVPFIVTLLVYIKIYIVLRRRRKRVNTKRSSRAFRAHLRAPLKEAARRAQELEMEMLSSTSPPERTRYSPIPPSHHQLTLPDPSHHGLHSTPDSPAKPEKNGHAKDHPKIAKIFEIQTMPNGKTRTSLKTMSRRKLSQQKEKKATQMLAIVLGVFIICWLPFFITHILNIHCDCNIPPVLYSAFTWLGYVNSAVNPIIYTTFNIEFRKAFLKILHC

In the case of `Nc1c2c(nc3ccccc13)CCCC2` [tacrine], the “patients with elevated liver transaminases” value [1] is listed as “about 30%”.

In the case of `O=C(CCCN1CCC(O)(c2ccc(Cl)cc2)CC1)c1ccc(F)cc1` [haloperidol, reference compound], the induction of catalepsy (mice [2]; haloperidol 1 mg/kg i.p.) was “unlike haloperidol”.

With `CCCCC1CCN(CCCn2c(=O)[nH]c3ccccc32)CC1` [Compound 61KS-19, 1-(3-[4-Butylpiperidino]propyl)-1,3-dihydrobenzimidazol-2-one] the “binding efficacy for the M1 receptor subtype” value (M1 muscarinic receptor) was “high binding efficacy”, the Emax (M1 muscarinic receptor; NIH3T3, R-SAT, transfected NIH-3T3 cells, relative to maximum response to carbachol, read-out: M1 % Efficacy) was 115% and the EC50 (M1 muscarinic receptor; R-SAT, transfected NIH-3T3 cells, read-out: M1 pEC50 (converted)) was 25.1 nM. For the same compound, the spontaneous locomotor activity (mice [3]) was “reduction of spontaneous locomotor activity”, the “binding efficacy for the M4 receptor subtype” value (M4 muscarinic receptor) was “high binding efficacy” and the Emax (M4 muscarinic receptor; NIH3T3, R-SAT, transfected NIH-3T3 cells, relative to maximum response to carbachol, read-out: M4 % Efficacy) was 141%. For the same compound, the EC50 (M4 muscarinic receptor; R-SAT, transfected NIH-3T3 cells, read-out: M4 pEC50 (converted)) was 31.6 nM, the induction of catalepsy (mice [2]; 10 mg/kg i.p.) was “failed to induce catalepsy” and the MK-801-induced hyperactivity (mice [4]) was “reduction of MK-801-induced hyperactivity”. For the same compound, the amphetamine-induced hyperactivity (mice [5]) was “reduction of amphetamine-induced hyperactivity”, the IC50 [6] was 794 nM and the scopolamine-induced hyperactivity (mice [7]) was “reduction of scopolamine-induced hyperactivity”.

For `CCCCCCOc1nsnc1C1=CCCN(C)C1` [Xanomeline], the “affinity for dopamine receptors” value (dopamine receptors) is listed as “little or no affinity for dopamine receptors”.
